{"source": "paper PMC3294087", "about": "(Journal of Immunology (Baltimore, Md. : 1950), 2012)", "molecules": {"B1": {"name": "SP-D: Recombinant human pulmonary surfactant protein D, dodecameric fraction, produced in CHO-K1 cells (protein, UniProt P35247 21-375, looked up)", "Pulmonary …": "AEMKTYSHRTMPSACTLVMCSSVESGLPGRDGRDGREGPRGEKGDPGLPGAAGQAGMPGQAGPVGPKGDNGSVGEPGPKGDTGPSGPPGPPGVPGPAGREGPLGKQGNIGPQGKPGPKGEAGPKGEVGAPGMQGSAGARGLAGPKGERGVPGERGVPGNTGAAGSAGAMGPQGSPGARGPPGLKGDKGIPGDKGAKGESGLPDVASLRQQVEALQGQVQHLQAAFSQYKKVELFPNGQSVGEKIFKTAGFVKPFTEAQLLCTQAGGQLASPRSAAENAALQQLVVAKNEAAFLSMTDSKTEGKFTYPTGESLVYSNWAPGEPNDDGGSEDCVEIFTNGKWNDRACGEKRLVVCEF", "modifications": "dodecameric fraction"}}, "key": {"[1]": {"test_system": "Candida albicans (Berkhout anamorph, ATCC # MYA-3573)", "assay_type": "cell-based", "settings": "mean of three experiments"}, "[2]": {"test_system": "Staphylococcus aureus (Wood 46 strain; ATCC# 10832)", "assay_type": "cell-based", "settings": "30 min at 37°C in PBS, mean of three experiments"}, "[3]": {"test_system": "Phil82 strain of IAV (A/Phillipines/82(H3N2))", "experiment": "Fluorescent focus assay on A549 cells", "assay_type": "cell-based, influenza A virus", "settings": "mean±SEM of 4 experiments"}}, "note": "Like-named read-outs stand apart in the source and are kept apart here."}
{"molecule": "HNP1: human neutrophil α-defensin", "values": [{"measurement": "C. albicans % of Control Colonies", "setting": "[1]; 1.25 μg/ml", "result": "81±5", "unit": "%"}, {"measurement": "C. albicans % of Control Colonies", "setting": "[1]; 2.5 μg/ml", "result": "61±4", "unit": "%"}, {"measurement": "C. albicans % of Control Colonies", "setting": "[1]; 20 μg/ml", "result": "61±2", "unit": "%"}, {"measurement": "S. aureus % of Control Colonies", "setting": "[2]; 1.25 μg/ml", "result": "202±5", "unit": "%"}, {"measurement": "S. aureus % of Control Colonies", "setting": "[2]; 2.5 μg/ml", "result": "151±4", "unit": "%"}, {"measurement": "S. aureus % of Control Colonies", "setting": "[2]; 20 μg/ml", "result": "71±1", "unit": "%"}]}
{"molecule": "B1", "values": [{"measurement": "Neutralizing activity (infectious foci, control = 100%)", "setting": "[3]; SP-D 5 ng/ml alone", "result": "74±10", "unit": "%"}, {"measurement": "Neutralizing activity (infectious foci, control = 100%)", "setting": "[3]; SP-D 10 ng/ml alone", "result": "50±6", "unit": "%"}]}
